Laboratory results published in patent publication US20110059114A1, “Compositions and Methods for the Treatment of Radioresistant Glioma Stem Cells” (DUKE UNIVERSITY, priority 2009, published 2011).

Tests used:
[1] = system: CD133+ cells enriched from medulloblastoma cell lines; details: cited from earlier work
[2] = system: T4302 CD133+ cells; test: Trypan blue exclusion assay; assay type: cell-based, human; details: two days after 3-Gy radiation
Method: (§1) FIG. 2 is a series of graphs illustrating that γ-secretase inhibitors enhance radiation-induced cell death in glioma stem cells. (A) T4302 CD 133+ cells were pre-treated with DAPT or L685,458 for 4 hours and irradiated at 3 Gy. Percentage of dead cells was determined by trypan blue exclusion assay at 48 hours after radiation exposure. (B) T4302 CD 133+ cells were treated with GSIs ±radiation as indicated. Cells were then plated at 3000 cells per well in 96-well plates. Relative caspase 3/7 activities were determined by normalizing caspase activities to the corresponding cell titers. (C) T4302 CD 133+ cells were treated as described in FIG. 2A. 24 or 48 hours after radiation exposure, cells were labeled with FITC-conjugated Annexin V staining kit (BD Sciences) according to manufacturer's instructions and analyzed by flow cytometry. (D) T4302 CD 133+ cells were pre-treated with 2 μM DAPT for 4 hours, and were left unirradiated or irradiated at 1, 2 or 3 Gy. Relative caspase 3/7 activities were determined at 72 hours after radiation. (E) T4302 CD133+ cells were pre-treated with DAPT at indicated concentrations for 4 hours and irradiated at 3 Gy. Relative caspase activities were determined at 48 or 72 hours after radiation. *: p<0.01 by Student's t-test; #: p<0.01 by one-way ANOVA.

[3] = system: Notch signaling; test: Notch-responsive luciferase reporter (RBP-Jκ reporter) assay; assay type: cell-based, human; details: T4302 CD133+ cells; 2 μM DAPT or 0.5 μM L685,458 over night
Text: (§2) FIG. 1 is a series of graphs illustrating that γ-secretase inhibitors reduce cell growth and clonogenic survival of glioma stem cells following radiation. (A) T4302 CD133+ glioma stem cells were transfected with a Notch-responsive luciferase reporter (RBP-JK reporter) pre-mixed with the vector directing constitutive expression of Renilla luciferase. Cells were left unirradiated or irradiated at 3 Gy, and were then collected to measure luciferase activities at time points as indicated. […] The relative mRNA levels of Hes2 were determined by quantitative real-time PCR at the time points as indicated. […] Total viable cell numbers were then determined by the CellTiter-Glo Luminescent Cell Viability Assay (Promega) for the following five days. […] Cells were then plated to form neurospheres, and the surviving fractions were determined as described in methods. […] (F,G) Neurosphere formation of T3359 and T4105 CD 133+ cells treated with GSIs alone, 3-Gy radiation alone, or the combination was determined as described in FIG. 1E. *: p<0.05 by Student's t-test; #: p<0.001 by one-way ANOVA.
Luciferase assay. […] The luciferase activities were determined by the Dual-luciferase assay system (Promega).

[4] = system: Chk1 and Chk2; test: Immunoblotting of activating phosphorylation of Chk1 and Chk2; assay type: cell-based, human; details: following radiation, pretreated 24 hours
Method: (A) T4302 CD133+ cells were pretreated with DPAT or L685,458 for 24 hours prior radiation. One hour after radiation exposure, cells were harvested. The levels of activating phosphorylation of Chk1 and Chk2 were assessed by immunoblotting. (B) T4302 CD133+ cells were treated with 2 μM DAPT at 4, 24 hours prior to radiation (−24 hrs, or -4 hrs), or at 0, 4, 24 hours after radiation. Relative caspase 3/7 activities were measured 3 days after radiation exposure. *: p<0.001 by Student's t-test.
Antibodies, DNA constructs, lentiviruses and other reagents. The antibodies purchased from Cell Signaling Technology (Danvers, M A) include phosphor-S296-Chk1 (2349), total Chk1 (2345), phosphor-T68-Chk2 (2661), total Chk2 (2662), phospho-5473 Akt (#9271), total Akt (#9272), PTEN (#9556), phospho-S15-p53 (#9286), Bcl-2 (#2870), Bcl-xL (#2764), Mcl-1 (#4572), Puma (#4976). Other antibodies used in this study are p53 antibody (#sc-126, Santa Cruz Biotechnology, Santa Cruz, Calif.), and actin antibody (Millipore, Billerica, Mass.). The pcDNA3-Notch1 construct was kindly provided by Dr. Spyros Artavanis-Tsakonas, Harvard University. The coding sequences of intracellular domain of Notch1 (amino acid residues 1744-2556) was amplified by PCR and subcloned into the lentiviral vector pCDH-CMV-EF1-puro (System Biosciences, Mountain View, Calif.) through the EcoRI and NotI sites. […]

[5] = system: T4302 CD133+ cells; test: Annexin V staining, flow cytometry; assay type: cell-based, human
Method: as §1

[6] = system: T4302 CD133+ glioma stem cells; test: Growth curve, CellTiter-Glo Luminescent Cell Viability Assay; assay type: cell-based, human; details: without radiation treatment, day five; 2 μM DAPT or 0.5 μM L685,458
Text: as §2
Growth Curve, caspase 3/7 assay, and clonogenic survival assay. […] Cell number was measured for 5 days using the CellTiter-Glo assay kit (Promega, Madison, […].). […]

Structure (SMILES) | apoptosis and differentiation in CD133+ cells [1] | apoptosis in nestin-expressing cells in comparison to nestin-negative cells [1] [fold] | tumorigenic capacity of CD133+ cells [1] | dead cells [2] [%] | Notch signaling in glioma stem cells (Notch-responsive luciferase reporter) [3] | activating phosphorylation of Chk1 or Chk2 [4] | Annexin V-positive labeled cells ([5]; 24 hours following 3 Gy radiation) | Annexin V-positive labeled cells ([5]; 48 hours following 3 Gy radiation) | sham-treated cells more than GSI-treated cells (total cell number) [6] [%]
O=S(=O)(NC1[C@@H]2CC[C@H]1Cc1ccccc1C2)c1cccs1 (stereo partly drawn) [GSI-18] | induces apoptosis and differentiation | 10 | impairs the tumorigenic capacity | – | – | – | – | – | –
CC(C)C[C@H](NC(=O)[C@H](Cc1ccccc1)C[C@@H](O)[C@H](Cc1ccccc1)NC(=O)OC(C)(C)C)C(=O)N[C@@H](Cc1ccccc1)C(N)=O [L685,458] | – | – | – | 60 | blocked | Neither of DAPT or L685,458 significantly altered | not obvious | significantly increased | 60
